Test results reported in ChEMBL document CHEMBL1122538, “Functional group contributions to drug-receptor interactions” (J Med Chem, 1984).

Assay: Binding energy by using the equation deltaG obsd = -RT ln KD
Format: ADME

Structure (SMILES)	Binding energy
O=C1CC(=O)N([C@@H]2O[C@H](COP(=O)(O)O)[C@@H](O)[C@H]2O)C(=O)N1	15.1 kcal/mol
O=P(O)(O)O[C@H]1OC[C@@H](O)[C@H](O)[C@H]1O	6.2 kcal/mol
NC(CO)Cc1ccccc1 (stereo not given)	7.1 kcal/mol
COc1cccc(OC)c1OCCNCC1COc2ccccc2O1 (stereo not given)	12.9 kcal/mol
NC(=O)C(N)Cc1ccccc1 (stereo not given)	6.1 kcal/mol
O=P(O)(O)C#CCCO	3.4 kcal/mol
CCc1nc(N)nc(N)c1C12CC3CC(CC(C3)C1)C2	13.4 kcal/mol
CCC(C)CN (stereo not given)	2.8 kcal/mol
O=C(O)C(Cc1ccccc1)OP(=O)(O)O (stereo not given)	9.3 kcal/mol
Cc1c(O)oc2ccccc2c1=O	7 kcal/mol
O=C(O)c1ccc(C(=O)O)c(C(=O)O)c1	5.2 kcal/mol
C=C(C)[C@@H]1[C@H]2OC(=O)[C@@H]1[C@]1(O)[C@H]3O[C@H]3[C@]3(CO3)[C@]1(C)[C@@H]2O	8.8 kcal/mol
COC1C2CCN(CC3CC3)C1Cc1ccc(O)cc12 (stereo not given)	12.2 kcal/mol
Nc1ccn([C@@H]2O[C@H](COP(=O)(O)O)[C@@H](O)[C@H]2O)c(=O)n1	5.9 kcal/mol
O=C1CCN([C@H]2C[C@H](O)[C@@H](COP(=O)(O)O)O2)C(=O)N1	10.9 kcal/mol
Cc1ncc(CO)c(CN[C@@H](C)C(=O)O)c1O	9.2 kcal/mol
O=C(O)CC(CC(=O)CP(=O)(O)O)C(=O)O (stereo not given)	10.9 kcal/mol
N/C=C(\OP(=O)(O)O)C(=O)O	10.5 kcal/mol
O=P(O)(O)CCCCO	3.3 kcal/mol
Cc1c(Cc2ccc(Cl)cc2)cnc2nc(N)nc(N)c12	13.2 kcal/mol
CO/C=C/C(N)C(=O)O (stereo not given)	5.9 kcal/mol
O=C(NO)C(O)P(=O)(O)O (stereo not given)	10.9 kcal/mol
O=C(O)Cc1ccccc1Oc1ccc(Cl)c(O)c1Cl	8.7 kcal/mol
O=P(O)(O)/C=C/CCO	4.1 kcal/mol

Structure (SMILES)	Binding energy
CC(C)Cc1cnc2nc(N)nc(N)c2n1	12.3 kcal/mol
O=C(O)C(COP(=O)(O)O)[C@H](O)[C@H](O)COP(=O)(O)O (stereo not given in full)	8.2 kcal/mol
CCCCCc1ccc2nc(N)nc(N)c2c1C	18.7 kcal/mol
CCC1(CC=C2CCCCC2)C(=O)NC(=O)NC1=O	8.4 kcal/mol
CC(=O)OC(Cc1ccc(C=O)cc1)c1ccc(C=O)cc1 (stereo not given)	6.4 kcal/mol
CC(=O)CC(=O)C(=O)O	9.1 kcal/mol
Nc1nc(N)c2nc(Cc3ccccc3)cnc2n1	12.3 kcal/mol
C=C1CC[C@H](O)C/C1=C/C=C1\CCC[C@]2(C)[C@@H]([C@H](C)CCC(O)C(C)(C)O)CC[C@@H]12 (stereo not given in full)	13.2 kcal/mol
O=P(O)(O)OC[C@H]1O[C@](O)(CO)[C@@H](O)[C@@H]1O	5.7 kcal/mol
C[C@]12CCC(=O)C[C@@H]1CC[C@@H]1[C@@H]2CC[C@]2(C)[C@@H](O)CC[C@@H]12 (stereo in doubt) [STANOLONE]	6.8 kcal/mol
C[C@]12CCC(=O)C[C@@H]1CC[C@@H]1[C@@H]2CC[C@]2(C)[C@@H](O)CC[C@@H]12 (stereo in doubt; 155) [STANOLONE]	13.1 kcal/mol
CC(=O)O [ACETIC ACID]	3.1 kcal/mol
CC(=O)OCC[N+](C)(C)C [ACETYLCHOLINE]	11.1 kcal/mol
C[C@]12CCC(=O)C=C1CC[C@@H]1[C@@H]2[C@@H](O)C[C@]2(C=O)[C@@H](C(=O)CO)CC[C@@H]12 [ALDOSTERONE]	12.7 kcal/mol
Oc1ncnc2[nH]ncc12 [ALLOPURINOL]	12.5 kcal/mol
C=CCc1ccccc1OCC(O)CNC(C)C (stereo not given) [ALPRENOLOL]	12.9 kcal/mol
CCCCC[C@H](O)/C=C/[C@H]1[C@H](O)CC(=O)[C@@H]1CCCCCCC(=O)O [ALPROSTADIL]	11.2 kcal/mol
CN(C)CCC=C1c2ccccc2CCc2ccccc21 [AMITRIPTYLINE]	12.3 kcal/mol
CC(N)Cc1ccccc1 (stereo not given) [AMPHETAMINE]	6.8 kcal/mol
CN1CCc2cccc3c2[C@H]1Cc1ccc(O)c(O)c1-3 [APOMORPHINE]	11.9 kcal/mol
Nc1cc(Cl)c(N=C2NCCN2)c(Cl)c1 [APRACLONIDINE]	12.7 kcal/mol
COC(=O)C1=CCCN(C)C1 [ARECOLINE]	7.2 kcal/mol
COc1ccc(CCN2CCC(Nc3nc4ccccc4n3Cc3ccc(F)cc3)CC2)cc1 [ASTEMIZOLE]	11.3 kcal/mol
CN1[C@@H]2CC[C@H]1C[C@@H](OC(=O)C(CO)c1ccccc1)C2 (stereo not given in full) [ATROPINE]	12.8 kcal/mol

Structure (SMILES)	Binding energy
O=C(CCCN1CCC(n2c(O)nc3ccccc32)CC1)c1ccc(F)cc1 [BENPERIDOL]	12.2 kcal/mol
O=C1CCC(c2ccccc2)(C2CCN(Cc3ccccc3)CC2)C(=O)N1 (stereo not given) [BENZETIMIDE]	12 kcal/mol
CN1[C@@H]2CC[C@H]1C[C@@H](OC(c1ccccc1)c1ccccc1)C2 [BENZTROPINE]	12.6 kcal/mol
O=C(O)CCCC[C@@H]1SC[C@@H]2NC(=O)N[C@@H]21 [BIOTIN]	20.5 kcal/mol
O=C1CN=C(c2ccccn2)c2cc(Br)ccc2N1 [BROMAZEPAM]	10.3 kcal/mol
CN(C)CCc1c[nH]c2ccc(O)cc12 [BUFOTENINE]	9.4 kcal/mol
CO[C@]12CC[C@@]3(C[C@@H]1[C@](C)(O)C(C)(C)C)[C@H]1Cc4ccc(O)c5c4[C@@]3(CCN1CC1CC1)[C@H]2O5 [BUPRENORPHINE]	13.4 kcal/mol
CC12CCC(CC1=O)C2(C)C (stereo not given) [CAMPHOR]	11.4 kcal/mol
C[N+](C)(C)CCOC(N)=O.[Cl-] [CARBACHOL]	10.7 kcal/mol
NC(=O)N1c2ccccc2C=Cc2ccccc21 [CARBAMAZEPINE]	5.9 kcal/mol
CNC(=O)Oc1cccc2ccccc12 [CARBARIL]	6.4 kcal/mol
CN(C)CCOC(c1ccc(Cl)cc1)c1ccccn1 (stereo not given) [CARBINOXAMINE]	12.3 kcal/mol
CNC(=O)Oc1cccc2c1OC(C)(C)C2 [CARBOFURAN]	4.6 kcal/mol
Clc1ccc(C(c2ccc(Cl)cc2)C(Cl)(Cl)Cl)cc1 [CHLOROPHENOTHANE]	7.6 kcal/mol
CN(C)CCC(c1ccc(Cl)cc1)c1ccccn1 (stereo not given) [CHLORPHENIRAMINE]	12.8 kcal/mol
CN(C)CCCN1c2ccccc2Sc2ccc(Cl)cc21 [CHLORPROMAZINE]	12.3 kcal/mol
C(=C\c1ccccc1)/CN1CCN(C(c2ccccc2)c2ccccc2)CC1 [CINNARIZINE]	8.4 kcal/mol
O=C(O)CC(O)(CC(=O)O)C(=O)O [CITRIC ACID]	5 kcal/mol
Clc1cccc(Cl)c1N=C1NCCN1 [CLONIDINE]	12.3 kcal/mol
CN1CCC(=C2c3ccccc3Oc3ccc(Cl)cc32)CC1 [CLOPIPAZAN]	12.8 kcal/mol
CN1CCN(C2=Nc3cc(Cl)ccc3Nc3ccccc32)CC1 [CLOZAPINE]	12.3 kcal/mol
OC[C@H]1O[C@@H](n2cnc3c2N=CNC[C@H]3O)[C@H](O)[C@@H]1O [COFORMYCIN]	15 kcal/mol
